Experimental data: ChEMBL document CHEMBL1201862, “PubChem BioAssay data set” (2004)
Calls of active or inactive are those of the source.

Legend:
[1] = biological target: UDP-galactopyranose mutase (Mycobacterium tuberculosis, UniProt P9WIQ1); assay: Inhibitors of Mycobacterium tuberculosis UDP-galactopyranose mutase (UGM) enzyme Measured in Biochemical System Using Plate Reader - 2105-02_Inhibitor_Dose_CherryPick_Activity. [Related pubchem assays (depositor defined):AID504439]
[2] = biological target: G-protein coupled receptor 55 (Homo sapiens, UniProt Q9Y2T6); assay: blockers of GPR55 signalling, imaged – imaging, image-based, counter-screen for GPR35 antagonist project, SAR follow-up (AID 2397); type: functional
Cytochrome P450 2C9 = Cytochrome P450 2C9 (Homo sapiens, UniProt P11712)
Cytochrome P450 2D6 = Cytochrome P450 2D6 (Homo sapiens, UniProt P10635);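 note: CYP2D6 member of a cytochrome P450 panel assay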
[3] = biological target: Dual specificity protein phosphatase 3 (Homo sapiens, UniProt P51452); assay: SAR VHR1 Fluorescent Assay for In Vitro dose response studies Set 3. [Related pubchem assays (depositor defined):AID1654, AID1661, AID1878]; type: functional
Sequence of Dual specificity protein phosphatase 3 (P51452 whole entry): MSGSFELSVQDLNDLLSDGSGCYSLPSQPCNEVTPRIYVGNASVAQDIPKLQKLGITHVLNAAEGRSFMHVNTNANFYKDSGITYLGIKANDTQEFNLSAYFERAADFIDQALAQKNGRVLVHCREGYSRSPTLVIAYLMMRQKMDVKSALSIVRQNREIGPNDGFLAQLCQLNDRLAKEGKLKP

Sequence of UDP-galactopyranose mutase (P9WIQ1 whole entry): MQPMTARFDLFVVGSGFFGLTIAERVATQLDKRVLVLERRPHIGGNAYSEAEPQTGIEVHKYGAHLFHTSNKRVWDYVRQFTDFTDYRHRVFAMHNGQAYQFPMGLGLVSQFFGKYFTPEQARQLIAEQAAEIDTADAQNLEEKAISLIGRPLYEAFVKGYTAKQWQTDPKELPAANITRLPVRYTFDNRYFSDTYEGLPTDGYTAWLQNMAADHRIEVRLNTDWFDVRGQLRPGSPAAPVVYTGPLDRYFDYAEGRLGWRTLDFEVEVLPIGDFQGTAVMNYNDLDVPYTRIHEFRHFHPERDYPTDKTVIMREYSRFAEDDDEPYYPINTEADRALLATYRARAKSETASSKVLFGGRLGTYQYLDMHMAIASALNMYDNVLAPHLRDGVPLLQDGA
Sequence of Cytochrome P450 2D6 (P10635 whole entry): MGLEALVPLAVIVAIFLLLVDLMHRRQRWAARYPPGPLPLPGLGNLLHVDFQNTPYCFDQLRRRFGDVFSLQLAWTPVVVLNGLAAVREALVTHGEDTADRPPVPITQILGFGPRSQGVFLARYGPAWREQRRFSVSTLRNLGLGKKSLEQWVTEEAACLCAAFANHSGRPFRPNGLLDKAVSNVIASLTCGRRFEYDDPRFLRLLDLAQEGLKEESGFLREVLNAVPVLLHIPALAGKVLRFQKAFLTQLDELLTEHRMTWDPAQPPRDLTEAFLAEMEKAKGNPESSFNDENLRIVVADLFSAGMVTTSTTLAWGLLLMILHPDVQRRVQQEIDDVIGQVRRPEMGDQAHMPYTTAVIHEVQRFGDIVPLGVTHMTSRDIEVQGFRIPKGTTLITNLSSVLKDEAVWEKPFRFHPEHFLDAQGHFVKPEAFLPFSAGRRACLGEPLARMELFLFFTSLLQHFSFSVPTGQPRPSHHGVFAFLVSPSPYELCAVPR
Sequence of Cytochrome P450 2C9 (P11712 whole entry): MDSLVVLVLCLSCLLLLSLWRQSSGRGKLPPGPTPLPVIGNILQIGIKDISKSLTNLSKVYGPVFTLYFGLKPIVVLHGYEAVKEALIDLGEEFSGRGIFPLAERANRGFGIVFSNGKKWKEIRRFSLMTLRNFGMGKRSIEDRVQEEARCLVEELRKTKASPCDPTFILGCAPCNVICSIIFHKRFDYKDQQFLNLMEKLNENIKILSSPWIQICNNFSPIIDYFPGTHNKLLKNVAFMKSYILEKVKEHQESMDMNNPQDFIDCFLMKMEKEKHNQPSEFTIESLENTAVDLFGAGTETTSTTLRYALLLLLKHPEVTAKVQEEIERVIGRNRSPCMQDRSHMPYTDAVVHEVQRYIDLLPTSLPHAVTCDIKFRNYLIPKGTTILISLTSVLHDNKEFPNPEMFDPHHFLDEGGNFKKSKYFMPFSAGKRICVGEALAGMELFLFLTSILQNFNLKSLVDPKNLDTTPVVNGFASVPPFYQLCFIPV
Sequence of G-protein coupled receptor 55 (Q9Y2T6 whole entry): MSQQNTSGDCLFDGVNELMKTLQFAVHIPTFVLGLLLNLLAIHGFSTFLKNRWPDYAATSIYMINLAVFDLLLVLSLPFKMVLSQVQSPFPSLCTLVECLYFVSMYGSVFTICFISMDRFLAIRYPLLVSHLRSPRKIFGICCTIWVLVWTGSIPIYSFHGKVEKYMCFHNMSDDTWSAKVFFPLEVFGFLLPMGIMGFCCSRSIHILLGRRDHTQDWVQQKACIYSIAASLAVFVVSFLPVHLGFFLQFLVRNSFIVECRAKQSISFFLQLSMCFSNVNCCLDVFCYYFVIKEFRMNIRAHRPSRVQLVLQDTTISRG

In the case of `CCOC(=O)c1c(O)[n+]([O-])c2ccc(OC)cc2[n+]1[O-]`, the AC50 [1] is reported as 200 µM (active).

For `c1ccc(-c2n[n+](-c3ccccc3)c(-c3ccccc3)s2)cc1`, the IC50 [2] was > 32 µM (inactive).

`CCOC(=O)COc1c(C=O)cc(Br)cc1OC` was tested, and the AC50 (Cytochrome P450 2C9) was “inconclusive” and the AC50 (Cytochrome P450 2D6) was “inconclusive”.

With `Cc1ccc2sc(-c3ccc(NC(=O)c4cc(-n5cnnc5)ccc4Cl)cc3)nc2c1` the IC50 [3] was 11.4 µM (active).
